The text below walks through data of paper PMC12723664, “A high-quality chromosome-level genome assembly of the oligophagous fruit fly Bactrocera tsuneonis (Diptera: Tephritidae) and insights into its host specificity” (GigaScience, 2025).

One assay deals with BtsuOBP83a. In words: Fluorescence competitive binding assay (1-NPN probe), recombinant BtsuOBP83a. Also on record: species or system Bactrocera tsuneonis. Particulars: for Ki: relative dissociation constant calculated from IC50, competition with 1-NPN, ligand 4–32 μmol/L, pH 7.4, read-out: Ki (μM) OBP83a; for binding to BtsuOBP83a (in words): fluorescence competitive binding assay. An excerpt: (§1) Full-length sequences of BtsuOBP83a and BtsuOBP83b were amplified using specific primers (Supplementary Table S1). Purified PCR products were cloned into the pGEM-T vector (Promega) for sequencing verification. The confirmed target fragments were then subcloned into the pET-30a(+) expression vector (Sangon) using restriction enzymes (Supplementary Table S2) and T4 DNA ligase (Takara). Recombinant plasmids were transformed into Escherichia coli BL21 (DE3) competent cells (Tiangen). Bacterial cultures were grown to an OD600 of 0.6–0.8, after which protein expression was induced by adding isopropyl-β-D-thiogalactopyranoside (IPTG) (Solarbio) to a final concentration of 1 mM at different temperatures. Cells were harvested by centrifugation (5,000 × g, 15 minutes), lysed in phosphate-buffered saline buffer via sonication, and subjected to sodium dodecyl sulfate–polyacrylamide gel electrophoresis (SDS-PAGE) analysis after heat treatment. Large-scale protein expression was performed under optimized induction conditions. Soluble proteins in the supernatant were purified twice using Ni-affinity chromatography (GE Healthcare). His-tags were removed using enterokinase (Novoprotein). All purification steps were conducted at 4°C. The size and purity of OBP proteins were evaluated via SDS-PAGE, and protein concentrations were determined using the Bradford method.
(§2) The ligand-binding affinities of candidate OBPs were evaluated using fluorescence competitive binding assays performed on an F-380 Fluorescence Spectrophotometer (Tianfang), with modifications to the standard procedure. Purified OBP proteins were diluted to a final concentration of 2 μmol/L in 50 mmol/L Tris-HCl buffer (pH 7.4). The fluorescent probe N-phenyl-1-naphthylamine (1-NPN) and all candidate volatile ligands were dissolved in high-performance liquid chromatography–grade methanol at an initial concentration of 1 mmol/L. The binding constant between OBPs and 1-NPN was determined by recording emission spectra from 350 to 470 nm at an excitation wavelength of 337 nm. To establish binding saturation, titrations were conducted by sequentially adding 1-NPN to the protein solution, reaching final concentrations of 2–20 μmol/L in 2-μmol/L increments. Fluorescence intensity was measured after stabilization, and each measurement was performed in triplicate. […] Each experiment was conducted in triplicate. Dissociation constants (Ki) for the volatile ligands were calculated from the corresponding IC50 values using the following equation: […]

The target in another assay is BtsuOBP83b. In words: Fluorescence competitive binding assay (1-NPN probe), recombinant BtsuOBP83b. To be noted: for Ki: relative dissociation constant calculated from IC50, competition with 1-NPN, ligand 4–32 μmol/L, pH 7.4, read-out: Ki (μM) OBP83b. Also noted: species or system Bactrocera tsuneonis.
Source text: as §1, §2

“Also recorded” adds a separate entry of the source.

As for `CCCCCCCCCCCCF` [1-Fluorododecane], the Ki at BtsuOBP83a and on BtsuOBP83b was above 50 µM throughout.

Regarding `CC(C)c1ccccc1` [Cumene], the Ki on BtsuOBP83a and at BtsuOBP83b was above 50 µM each time.

As for `C=Cc1ccccc1` [Styrene], the Ki at BtsuOBP83a and at BtsuOBP83b was above 50 µM throughout.

Consider `CCCCOC(=O)C(C)CC` (stereo not drawn) [Butyl 2-methylbutyrate], for which the Ki at BtsuOBP83a and at BtsuOBP83b was above 50 µM in each case.

In the case of `CC1=CC(=O)C(C(C)C)CC1` (stereo not drawn) [Piperitone], the “binding to BtsuOBP83a (in words)” value in the assay with BtsuOBP83a is reported as “selectively binds; also recorded: binds strongly; also recorded: strong binding affinity”. Moreover, the figures for the Ki on BtsuOBP83a and on BtsuOBP83b were 17.9 µM and above 50 µM, respectively.

With `CC/C=C\CCOC(=O)CC` [cis-3-Hexenyl propionate], the Ki at BtsuOBP83a and on BtsuOBP83b was above 50 µM in each case.

Regarding `CCCCCC(=O)OCCC` [Propyl Hexanoate], the Ki at BtsuOBP83a and on BtsuOBP83b was above 50 µM in each case.

Consider `C=CC(C)(O)CC/C=C(\C)CCC=C(C)C` (stereo not drawn) [trans-Nerolidol], for which, in the assay on BtsuOBP83a, the “binding to BtsuOBP83a (in words)” value is recorded as “selectively binds; also recorded: binds strongly; also recorded: strong binding affinity” and the Ki is 9.36 µM. In addition, the inhibition constant Ki at BtsuOBP83b is above 50 µM.

Turning to `CCCCC/C=C/C(=O)OCC` [Ethyl trans-2-octenoate], the Ki was 46.3 µM at BtsuOBP83a and above 50 µM at BtsuOBP83b.

Consider `CCCC=CC=O` [2-Hexenal], for which the values for the Ki on BtsuOBP83a and at BtsuOBP83b were 42.7 µM and 31.9 µM, respectively.

Regarding `CCCCCC=O` [Hexanal], the Ki on BtsuOBP83a was 40.7 µM; on BtsuOBP83b, 33.7 µM.

For the molecule `CCCCCC(=O)OCC` [Ethyl hexanoate], the inhibition constant (Ki) on BtsuOBP83a and on BtsuOBP83b was above 50 µM throughout.

For the molecule `CC(C)=CCC/C(C)=C\CO` [Nerol], the Ki on BtsuOBP83a and on BtsuOBP83b was above 50 µM in each case.

As to `CCCCCCCCO` [1-Octanol], the figures for the Ki on BtsuOBP83a and at BtsuOBP83b were 36.4 µM and 39.1 µM, respectively.

As for `CCCC(=O)OCCC(C)C` [Isoamyl butyrate], the Ki on BtsuOBP83a and at BtsuOBP83b was above 50 µM each time.

For the molecule `CCc1ccco1` [2-Ethylfuran], the Ki at BtsuOBP83a and at BtsuOBP83b was above 50 µM each time.

Take `C#Cc1cccc(N)c1` [3-Ethynylaniline]: the inhibitory constant (Ki) on BtsuOBP83a and at BtsuOBP83b was above 50 µM throughout.

Regarding `C=C1CC/C=C(/C)CC[C@@H]2[C@@H]1CC2(C)C` [Isocaryophyllene], the Ki on BtsuOBP83a and at BtsuOBP83b was above 50 µM in each case.

With `COc1cc(C)ccc1C(C)C` [2-Isopropyl-5-methylanisole], the Ki on BtsuOBP83a and on BtsuOBP83b was above 50 µM in each case.

Consider `CCC/C=C/COC(=O)CCC` [trans-2-Hexenyl Butyrate], for which the Ki at BtsuOBP83a is above 50 µM; at BtsuOBP83b, 28.5 µM.

As for `CC1=CCC2CC1C2(C)C` (stereo not drawn) [alpha-Pinene], the Ki was 49.2 µM at BtsuOBP83a and above 50 µM at BtsuOBP83b.

On to `C=C1CC/C=C(\C)CC[C@@H]2[C@@H]1CC2(C)C` [beta-Caryophyllene], for which the Ki at BtsuOBP83a and at BtsuOBP83b was above 50 µM in each case.

For the molecule `CCC/C=C/COC(=O)CC` [trans-2-Hexenyl propionate], the Ki at BtsuOBP83a and at BtsuOBP83b was above 50 µM each time.

With `CCc1ccccc1` [Ethylbenzene], the Ki on BtsuOBP83a and at BtsuOBP83b was above 50 µM each time.

As to `c1ccc(Nc2cccc3ccccc23)cc1` [1-NPN, N-phenyl-1-naphthylamine, reference compound], the Kd on BtsuOBP83a (BtsuOBP83a 2 μmol/L, 50 mmol/L Tris-HCl pH 7.4, 1-NPN 2–20 μmol/L, Scatchard, read-out: dissociation constants (Kd) for 1-NPN) amounted to 5.48 µM; on BtsuOBP83b (BtsuOBP83b 2 μmol/L, 50 mmol/L Tris-HCl pH 7.4, 1-NPN 2–20 μmol/L, Scatchard, read-out: dissociation constants (Kd) for 1-NPN) it was 6.92 µM.

For the molecule `CCOC(C)=O` [Ethylacetate], the inhibition constant Ki at BtsuOBP83a is above 50 µM; on BtsuOBP83b, 33 µM.

For `Cc1ccc(C(C)C)cc1O` [Carvacrol], the Ki on BtsuOBP83a and on BtsuOBP83b was above 50 µM throughout.

With `CCCCOC(=O)CC` [Butyl propionate], the Ki on BtsuOBP83a and at BtsuOBP83b was above 50 µM each time.

Turning to `CC/C=C\CCO` [cis-3-Hexen-1-ol], the Ki at BtsuOBP83a is 32.1 µM; on BtsuOBP83b, 31.8 µM.

For the molecule `CCCCC(=O)OCC` [Ethyl valerate], the Ki at BtsuOBP83a and on BtsuOBP83b was above 50 µM throughout.

Take `CC1=CCCC(C)(C)C12CCC(C)O2` (stereo not drawn) [Theaspirane]: the Ki on BtsuOBP83a and on BtsuOBP83b was above 50 µM in each case.

As to `CCOC(=O)C(C)CC` (stereo not drawn) [Ethyl 2-methylbutyrate], the Ki at BtsuOBP83a and at BtsuOBP83b was above 50 µM each time.

Consider `C=C(C)[C@H]1CC=C(C)C(=O)C1` [d-Carvone], for which the Ki at BtsuOBP83a and on BtsuOBP83b was above 50 µM throughout.

`CCCCCCCCOC(C)=O` [Octyl acetate]: the inhibitory constant (Ki) on BtsuOBP83a and on BtsuOBP83b was above 50 µM in each case.

As to `CCCCOC(=O)CCC` [Butyl butyrate], the Ki on BtsuOBP83a and at BtsuOBP83b was above 50 µM each time.

With `CC(=O)OCCC(C)C` [Isoamyl acetate], the figures for the Ki on BtsuOBP83a and on BtsuOBP83b were above 50 µM and 33.5 µM, respectively.

Consider `CCCCCCO` [1-Hexanol], for which the Ki on BtsuOBP83a was above 50 µM; on BtsuOBP83b, 31.8 µM.

`CCCCCCCC(=O)OCCCC` [Butyl caprylate]: the Ki on BtsuOBP83a and on BtsuOBP83b was above 50 µM each time.

For `CC1=CC[C@@H](C(C)(C)O)CC1` [(L)-alpha-terpineol], the Ki at BtsuOBP83a and at BtsuOBP83b was above 50 µM each time.

`CC(=O)OC/C=C(/C)CCC=C(C)C` [Neryl acetate]: the Ki at BtsuOBP83a and at BtsuOBP83b was above 50 µM each time.

On to `CC1=C[C@@H]2C(=C(C)CC[C@H]2C(C)C)CC1` [(+)-delta-Cadinene], for which the inhibition constant Ki at BtsuOBP83a and at BtsuOBP83b was above 50 µM throughout.

For the molecule `CC1=CCCC1` [1-Methylcyclopentene], the Ki on BtsuOBP83a and at BtsuOBP83b was above 50 µM each time.

Turning to `C/C=C/C(=O)OCC` [Ethyl crotonate], the inhibition constant (Ki) on BtsuOBP83a and on BtsuOBP83b was above 50 µM each time.

With `CC(C)CCO` [Isopentyl alcohol], the Ki on BtsuOBP83a was above 50 µM; at BtsuOBP83b, 40.2 µM.
